# Experimental data: PMC5157691 (Research and reports in biochemistry, 2016)
# Entries after “also recorded” stand apart in the source; their conditions may differ. Read-outs that look alike come from different tables or passages of the source. Ends that are not written are not given here.
# Assays:
# Mac-1-HEK293 cells [1] = type: cell-based, human
# αMI-domain [2] = conditions: surface plasmon resonance and biolayer interferometry; cited from earlier work
# [3] = system: U937, IC-21 and erythrocytes; experiment: Binding density of 125I-LL-37-GY on mammalian cells; conditions: 5 μg/ml 125I-LL-37-GY; U937, IC-21 and erythrocytes vs tested bacteria
# [4] = Binding of 125I-LL-37-GY to latex beads; conditions: 10 μg/ml 125I-labeled LL-37-GY; preliminary experiments
# Mac-1-HEK293 cells [5] = experiment: Adhesion of Mac-1-HEK293 cells to immobilized peptide; type: cell-based, human
# wild-type HEK293 cells [6] = experiment: Adhesion of wild-type HEK293 cells to immobilized LL-37; type: cell-based, human
# U937 cells = experiment: Adhesion of U937 monocytic cells to immobilized LL-37; type: cell-based, human; conditions: data not shown
# IC-21 macrophages [7] = experiment: Adhesion of IC-21 macrophages to immobilized peptide; type: cell-based, murine; conditions: in words; Fig. 4A shown for K18-37
# Salmonella = experiment: Binding density of 125I-LL-37-GY on Salmonella; conditions: 5 μg/ml 125I-LL-37-GY, 20 min at 22 °C
# [8] = system: adherent murine peritoneal macrophages; experiment: Phagocytosis of E. coli and S. aureus by adherent murine peritoneal macrophages; type: cell-based; conditions: LL-37 5 μg/ml, 60 min at 37 °C
# wild-type macrophages = experiment: Phagocytosis of latex beads by wild-type peritoneal macrophages; type: cell-based, mouse
# [9] = system: Mac-1-deficient macrophages; experiment: Phagocytosis of latex beads by Mac-1-deficient peritoneal macrophages; type: cell-based, mouse; conditions: LL-37-coated beads, 30 min at 37 °C
# Mac-1-HEK293 cells [10] = experiment: Spreading of Mac-1-HEK293 cells on LL-37; type: cell-based, human; conditions: slides coated with LL-37, 30 min at 37 °C
# wild-type HEK293 cells [11] = experiment: Spreading of wild-type HEK293 cells on LL-37; type: cell-based, human; conditions: 30 min at 37 °C
# macrophages [12] = experiment: Phagocytosis of bacteria by macrophages; type: cell-based
# [13] = system: adherent IC-21 macrophages; conditions: LL-37 5 μg/ml, E. coli, 60 min at 37 °C
# [14] = system: adherent IC-21 macrophages; conditions: LL-37 5 μg/ml, S. aureus, 60 min at 37 °C
# IC-21 macrophages [15] = conditions: LL-37 10 μg/ml, 1 μm beads, beads:cells 10:1, 30 min at 37 °C
# [16] = system: peritoneal mouse macrophages; conditions: LL-37 10 μg/ml, 1 μm beads, beads:cells 10:1, 30 min at 37 °C
# human THP-1 cells = conditions: LL-37 10 μg/ml, 1 μm beads, beads:cells 10:1, 30 min at 37 °C
# mammalian cells = conditions: LL-37 10 μg/ml; data not shown
# bacteria = conditions: bacterial killing in physiologically relevant buffers; cited from earlier work
# leukocytes = conditions: soluble LL-37; cited from earlier work
# monocyte and macrophages = conditions: cited from earlier work
# neutrophils = conditions: cited from earlier work
# αMI-domain [17] = conditions: cited from earlier work
# murine macrophages = conditions: opsonization with LL-37; cited from earlier work
# primary human monocytes = conditions: compared to uncoated beads; cited from earlier work
# macrophages [18] = conditions: pretreatment of macrophages with LL-37; cited from earlier work
# [19] = system: human peripheral blood monocytes, neutrophils and T cells; conditions: cited from earlier work
# Human neutrophils [20] = conditions: cited from earlier work
# Human neutrophils [21] = conditions: cited from earlier work; remark: listed apart in the source
# rodents = conditions: LL-37 injection; cited from earlier work
# Mac-1 = conditions: cited from earlier work
# wild-type HEK293 cells [22] = experiment: Inhibition of wild-type HEK293 cell adhesion to immobilized LL-37; type: cell-based, human; conditions: heparin 20 μg/ml, all coating concentrations of LL-37
# IC-21 macrophages [23] = experiment: Inhibition of IC-21 macrophage adhesion to immobilized K18-37; type: cell-based, murine; conditions: K18-37 coating 0.5 μg/ml; heparin 20 μg/ml; mean ± S.E. from 5-6 experiments
# Mac-1-HEK293 cells [24] = experiment: Inhibition of Mac-1-HEK293 cell adhesion to immobilized LL-37; type: cell-based, human
molecule,measurement,setting,value
DIDPKLKWD [reference compound],inhibition of cell adhesion to fibrinogen,"Mac-1-HEK293 cells [1]; control peptide, fibrinogen coated at 2.5 μg/ml, 15 min at 22 °C",inactive
"FKRIVQRIKDFLR [FK-13, reference compound]",interaction with αMI-domain,αMI-domain [2],no interaction
KRIVQRIKDFLRNLVPRTES [K18-37],IC50 for inhibition of cell adhesion to fibrinogen,Mac-1-HEK293 cells [1]; 3 h,6 µg/mL
"LL-37-GY: LL-37 containing two additional C-terminal residues Gly-Tyr (LLGDFFRKSKEKIGKEFKRIVQRIKDFLRNLVPRTESGY; also: 125I label, place not given here)",binding compared with bacteria,[3],bound significantly less
same,binding density on beads,[4],10.6±1.3 fg/μm^2
LLGDFFRKSKEKIGKEFKRIVQRIKDFLRNLVPRTES [LL-37],adhesion (percent of added cells),"Mac-1-HEK293 cells [5]; LL-37 coating 2 μg/ml, 30 min at 37 °C, calcein fluorescence, n=6",52 ± 5%
same,coating concentration for saturable adhesion,"Mac-1-HEK293 cells [5]; Mac-1-HEK293, 30 min at 37 °C",2 µg/mL
same,adhesion supported by peptide,Mac-1-HEK293 cells [5]; in words,supported strong adhesion; also recorded: supported efficient adhesion
same,adhesion of wild-type HEK293 cells,wild-type HEK293 cells [6]; LL-37 coating 0-1.0 μg/ml,no adhesion
same,adhesion of wild-type HEK293 cells,wild-type HEK293 cells [6]; LL-37 coating 1-4 μg/ml,"supported adhesion of wild-type HEK293 cells; however, maximal adhesion did not reach the level attained with Mac-1-HEK293 cells"
same,adhesion of U937 cells,U937 cells,adhered to LL-37 in a concentration-dependent manner
same,adhesion of IC-21 macrophages,IC-21 macrophages [7],strongly adhered
same,binding relative to E. coli (fold less),Salmonella,1.8 fold
same,binding to Salmonella relative to mammalian cells (fold higher),Salmonella,~ 17 fold
same,phagocytosis,[8],increased phagocytosis
same,enhancement of bead uptake,"wild-type macrophages; LL-37-coated beads, 30 min at 37 °C, three experiments in triplicate",~ 5 times
same,enhancement of bead uptake,"wild-type macrophages; LL-37-coated vs untreated beads, abstract",several fold higher than that of untreated beads
same,enhancement of bead uptake,[9],failed to augment phagocytosis of beads
same,cell spreading,Mac-1-HEK293 cells [10],spread in a concentration-dependent manner with the formation of stress fibers
same,cell spreading,wild-type HEK293 cells [11]; LL-37 coating 2 μg/ml,spread at higher LL-37 concentrations
same,cell spreading,wild-type HEK293 cells [11]; LL-37 coating 0.2-1.0 μg/ml,remained round
same,phagocytosis of bacteria,"macrophages [12]; Gram-negative and Gram-positive bacteria coated with LL-37, abstract",significantly potentiated their phagocytosis
same,concentration found to enhance bacterial phagocytosis,macrophages [12]; summary in discussion,1 to 5 µg/mL
same,fold increase of phagocytosis,[13],~ 17 fold
same,fold increase of phagocytosis,[14],~10 fold
same,fold augmentation of bead uptake,IC-21 macrophages [15],~ 3.5 fold
same,fold augmentation of bead uptake,[16],~4.5 fold
same,fold augmentation of bead uptake,human THP-1 cells,~6 fold
same,calcein leakage relative to background of control untreated cells,mammalian cells,~ 3 fold
same,minimal inhibitory concentration,bacteria,30 to 100 µg/mL
same,interaction with αMI-domain,αMI-domain [2],The interaction of the αMI-domain with LL-37 also was recently reported
same,concentration affecting membrane integrity of leukocytes,leukocytes,> 50 µg/mL
same,induction of migration,monocyte and macrophages,induces a potent migratory response of Mac-1-expressing monocytes and macrophages; also recorded: induced Mac-1-dependent migration of monocyte and macrophages
same,neutrophil activation,neutrophils,activates Mac-1 on the surface of neutrophils
same,αMI-domain binding,αMI-domain [17],binds the αMI-domain
same,phagocytosis,murine macrophages,increased phagocytosis by murine macrophages
same,uptake of LL-37-coated beads,primary human monocytes,increased compared to uncoated beads
same,bacterial phagocytosis,macrophages [18],augmented by pretreatment of macrophages
same,chemotactic effect,[19],chemotactic effect
same,production of reactive oxygen species,Human neutrophils [20],increase the production of reactive oxygen species
same,apoptosis,Human neutrophils [21],delayed apoptosis
same,protection from septic death,rodents,protects rodents from septic death
dynorphin A,phagocytosis,Mac-1,enhance phagocytosis
same,phagocytosis,"Mac-1; opsonization, through Mac-1",opsonizes bacteria and promotes phagocytosis through Mac-1
heparin,inhibition of adhesion of wild-type HEK293 cells,wild-type HEK293 cells [22],strong inhibitor of adhesion
same,inhibition of adhesion to K18-37,IC-21 macrophages [23],25 ± 13%
"NIF: neutrophil inhibitory factor, a specific inhibitor of the αMI-domain-ligand interactions (protein) NEHNLRCPQNGTEMPGFNDSIRLQFLAMHNGYRSKLALGHISITEESESDDDDDFGFLPDFAPRASKMRYLEYDCEAEKSAYMSARNCSDSSSPPEGYDENKYIFENSNNISEAALKAMISWAKEAFNLNKTKEGEGVLYRSNHDISNFANLAWDAREKFGCAVVNCPLGEIDDETNHDGETYATTIHVVCHYPKINKTEGQPIYKVGTPCDDCSEYTKKADNTTSADPVCIPDDGVCFIGSKADYDSKEFYRFREL",inhibition of adhesion,"Mac-1-HEK293 cells [24]; LL-37 coating high (2 μg/ml or ≥2 μg/ml), inhibitor preincubated 15 min at 22 °C",but not high (≥2 μg/ml) concentrations
same,"inhibition of cell adhesion to LL-37 (summary, words)","Mac-1-HEK293 cells [24]; abstract, various Mac-1-expressing cells",partially inhibited
